# Data: US10428041B2, “Pyridyl reverse sulfonamides for HBV treatment” (Novira Therapeutics, Inc., priority 2014, dated 2019)
# pEC50: −log10 of the molar value.
# System: HBV replication in HepG2-2.2.15 cells
# Test: Inhibition of HBV replication dot-blot assay
# Type: cell-based
# Conditions: Hepatitis B virus, 144 h, reduction in HBV DNA levels, six days
# Method: Compounds active in the HBV assembly assay are tested for their activity and toxicity in cellular assay. In the first anti-viral assay, the ability of compounds to inhibit HBV replication in an HBV-producing hepatoma cell line using the dot-blot method is evaluated.
# (§1) Briefly, confluent monolayers of HepG2-2.2.15 cells are incubated with complete medium containing various concentrations of a test compound. Three days later, the culture medium is replaced with fresh medium containing the appropriately diluted test compound. Six days following the initial administration of the test compound, the cell culture supernatant is collected, and cell lysis is performed. The samples are applied onto Nylos membranes and DNA is immobilized to the membrane by UV cross-linking. After pre-hybridization, the HBV probe is added and the hybridization is performed overnight. The membranes are exposed to the KODAK films; antiviral activity is calculated from the reduction in HBV DNA levels (EC50). The EC50 for antiviral activity is calculated from the dose response curves of active compounds. Assay performance over time is monitored by the use of the standard positive control compounds ETV, BAY 41-4109, and HAP-1.
# Selected compounds are tested for their activity and toxicity in cellular assay. In the first anti-viral assay, the ability of compounds to inhibit HBV replication in an HBV-producing hepatoma cell line using the dot-blot method is evaluated.
# as §1, with “Confluent monolayers” for “Briefly, confluent monolayers”, “lysis was” for “lysis is”
row,SMILES,pEC50
1,"O=C(Nc1ccc(F)c(Cl)c1)c1ccnc(NS(=O)(=O)CCC2CC2)c1 [Compound 23, N-(3-Chloro-4-fluorophenyl)-2-(2-cyclopropylethylsulfonamido)isonicotinamide]",> 5.00
2,"O=C(Nc1ccc(F)c(Cl)c1)c1ccnc(NS(=O)(=O)CCc2ccccc2)c1 [Compound 21, N-(3-Chloro-4-fluorophenyl)-2-(2-phenylethylsulfonamido)isonicotinamide]",> 5.00
3,"O=C(Nc1ccc(F)c(Cl)c1)c1ccnc(NS(=O)(=O)CC2CC2)c1 [Compound 36, N-(3-Chloro-4-fluorophenyl)-2-(cyclopropylmethylsulfonamido)isonicotinamide]",> 5.00
4,"CS(=O)(=O)Nc1cc(C(=O)Nc2ccc(F)c(Cl)c2)ccn1 [Compound 35, N-(3-Chloro-4-fluorophenyl)-2-(methylsulfonamido)isonicotinamide]",> 5.00
